How the values were obtained:
RAW264.7 [1] = assay: Inhibition of PGE2 production in LPS-induced mouse RAW264.7 cells at 10 uM; type: functional
RAW264.7 [2] = assay: Cytotoxicity against mouse RAW264.7 cells assessed as reduction in cell viability by MTT assay; type: cell-based
RAW264.7 [3] = assay: Inhibition of PGE2 production in LPS-induced mouse RAW264.7 cells at 3 uM; type: functional
[4] = target: T1, Prostaglandin G/H synthase 2 (Homo sapiens, UniProt P35354); assay: Inhibition of human recombinant COX2 in cell-free system by enzyme immunoassay
T1 sequence (P35354 whole entry): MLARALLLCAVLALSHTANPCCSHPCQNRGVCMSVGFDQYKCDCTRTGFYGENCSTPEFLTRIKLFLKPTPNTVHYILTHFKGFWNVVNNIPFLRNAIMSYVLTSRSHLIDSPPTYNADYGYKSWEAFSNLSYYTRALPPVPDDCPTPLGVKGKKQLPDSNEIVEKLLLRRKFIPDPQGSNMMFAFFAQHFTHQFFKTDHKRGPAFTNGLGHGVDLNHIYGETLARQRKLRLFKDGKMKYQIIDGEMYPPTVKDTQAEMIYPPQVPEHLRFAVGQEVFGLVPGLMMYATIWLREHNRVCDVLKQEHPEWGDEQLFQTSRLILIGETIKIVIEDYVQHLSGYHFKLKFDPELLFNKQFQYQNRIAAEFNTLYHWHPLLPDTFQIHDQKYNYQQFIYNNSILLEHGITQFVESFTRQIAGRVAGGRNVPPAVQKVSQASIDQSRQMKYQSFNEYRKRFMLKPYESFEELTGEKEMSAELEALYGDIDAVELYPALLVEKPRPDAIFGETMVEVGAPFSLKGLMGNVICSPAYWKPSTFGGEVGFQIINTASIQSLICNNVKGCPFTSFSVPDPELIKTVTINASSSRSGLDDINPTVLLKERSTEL

RAW264.7 [5] = assay: Inhibition of PGE2 production in LPS-induced mouse RAW264.7 cells; type: functional, cell-based
[6] = target: T2, Prostaglandin G/H synthase 2 (Homo sapiens) (UniProt P35354); assay: Inhibition of human recombinant COX2 in cell-free system at 10 uM by enzyme immunoassay
T2 sequence (whole entry): T1 sequence (P35354 whole entry)

RAW264.7 [7] = assay: Inhibition of PGE2 production in LPS-induced mouse RAW264.7 cells at 1 uM; type: functional

SMILES | inhibition at 10 µM (RAW264.7 [1]) [%] | Activity (RAW264.7 [2]) [µM] | other results
COC(=O)C(Sc1nc(Cl)nc(Nc2ccc(Oc3ccccc3)cc2)n1)c1cccc2ccccc12 (stereo not given) | 72.5 | > 10 | –
CS(=O)(=O)Nc1ccc([N+](=O)[O-])cc1OC1CCCCC1 [NS-398] | – | – | inhibition at 3 µM (RAW264.7 [3]): 99.4%
CC(C)c1ccc2c(c1)c(SC(C)(C)C)c(CC(C)(C)C(=O)O)n2Cc1ccc(Cl)cc1 | – | – | IC50 [4]: 58 µM
CCOC(=O)C(Sc1nc(Cl)nc(Nc2ccc(Cc3ccccc3)cc2)n1)c1cccc2ccccc12 (stereo not given) | 72.6 | > 10 | –
COC(=O)C(Sc1nc(Cl)nc(Nc2ccc(Cc3ccccc3)cc2)n1)c1ccccc1 (stereo not given) | 90.8 | > 10 | IC50 (RAW264.7 [5]): 5.52 µM; inhibition [6]: 0%
Cc1nc(Nc2ccc(C(C)C)cc2)nc(SC(C(N)=O)c2ccccc2)n1 (stereo not given) | – | < 10 | inhibition at 1 µM (RAW264.7 [7]): 26.5%
COC(=O)C(Sc1nc(Cl)nc(Nc2ccc(C(C)C)cc2)n1)c1cccc2ccccc12 (stereo not given) | 88.7 | > 10 | –
COC(=O)C(Sc1nc(C)nc(Nc2ccc(C(C)C)cc2)n1)c1ccccc1 (stereo not given) | 85.7 | > 10 | –
COC(=O)C(Sc1nc(Cl)nc(Nc2ccc(-c3ccccc3)cc2)n1)c1ccccc1 (stereo not given) | 82.7 | > 10 | –
COC(=O)C(Sc1nc(Cl)nc(Nc2ccc(C(C)C)cc2)n1)c1ccccc1 (stereo not given) | 91.8 | > 10 | IC50 (RAW264.7 [5]): 5.76 µM; inhibition [6]: 31.8%
CCOC(=O)C(Sc1nc(Cl)nc(Nc2ccc(C3CCCCC3)cc2)n1)c1cccc2ccccc12 (stereo not given) | 43.7 | > 10 | –
COC(=O)C(Sc1nc(Cl)nc(Nc2ccc(Oc3ccccc3)cc2)n1)c1ccccc1 (stereo not given) | 85.8 | > 10 | –
CCOC(=O)C(Sc1nc(Cl)nc(Nc2ccc(-c3ccccc3)cc2)n1)c1cccc2ccccc12 (stereo not given) | 78.6 | > 10 | –
O=C(O)C(Sc1nc(Cl)nc(Nc2ccc(-c3ccccc3)cc2)n1)c1cccc2ccccc12 (stereo not given) | 7.77 | > 10 | –

— ChEMBL document CHEMBL3352768, “Synthesis and PGE₂ production inhibition of s-triazine derivatives as a novel scaffold in RAW 264.7 macrophage cells” (Bioorg Med Chem Lett, 2014)
